From patent US10124004B2, “Pyrido[3,4-d]pyrimidine derivative and pharmaceutically acceptable salt thereof” (Teijin Pharma Limited, priority 2015, dated 2018)

Columns and labels:
CDK4/cyclin D3 = molecular target: T1, CDK4/cyclin D3 (Homo sapiens, UniProt P11802); experiment: Human CDK4/cyclin D3 inhibitory activity (QS S Assist CDK4/Cyclin D3_FP Kit, IMAP fluorescence polarization); format: biochemical; conditions: 50% inhibitory concentration against CDK4/cyclin D3, given as class symbol
T1 construct: purchased Carna Biosciences, Inc. QS S Assist CDK4/Cyclin D3_FP Kit
Summary of the method: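 IMAP fluorescence polarization kit: CDK4/cyclin D3 at 12.5-25 ng/well with kit ATP/substrate/metal mix in 20 mM HEPES pH 7.4, 0.01% Tween20, 2 mM DTT, 45 min at room temperature. FP read at 485/535 nm after 30 min binding; IC50 from dose-response fit of percent inhibition versus enzyme and no-enzyme controls.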

CDK2/cyclin A2 = molecular target: T2, CDK2/cyclin A2 (Homo sapiens, UniProt P24941); experiment: Human CDK2/cyclin A2 inhibitory activity (QS S Assist CDK2/Cyclin A2_FP Kit, IMAP fluorescence polarization); format: biochemical; conditions: 50% inhibitory concentration against CDK2/cyclin A2, given as class symbol
T2 construct: purchased Carna Biosciences, Inc. QS S Assist CDK2/Cyclin A2_FP Kit
Summary of the method: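 Kinase activity read as fluorescence polarization (485/535 nm) after phosphorylated fluorescent substrate binds IMAP reagent (30 min, RT, dark). Enzyme (2.5 ng/well) reacted 60 min at RT with ATP/substrate/metal in HEPES pH 7.4 buffer with Tween 20 and DTT; no-enzyme wells define 0% activity; IC50 by curve fit.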

T1 sequence (P11802 whole entry): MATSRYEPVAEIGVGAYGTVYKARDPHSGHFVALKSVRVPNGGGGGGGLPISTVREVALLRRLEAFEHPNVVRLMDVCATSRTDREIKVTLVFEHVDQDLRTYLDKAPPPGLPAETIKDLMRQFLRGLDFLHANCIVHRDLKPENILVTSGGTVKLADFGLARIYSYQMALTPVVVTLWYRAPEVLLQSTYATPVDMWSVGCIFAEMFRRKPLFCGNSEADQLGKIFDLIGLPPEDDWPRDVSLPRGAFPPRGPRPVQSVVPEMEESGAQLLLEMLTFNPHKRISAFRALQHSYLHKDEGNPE
T1 sequence (P30281 whole entry partner): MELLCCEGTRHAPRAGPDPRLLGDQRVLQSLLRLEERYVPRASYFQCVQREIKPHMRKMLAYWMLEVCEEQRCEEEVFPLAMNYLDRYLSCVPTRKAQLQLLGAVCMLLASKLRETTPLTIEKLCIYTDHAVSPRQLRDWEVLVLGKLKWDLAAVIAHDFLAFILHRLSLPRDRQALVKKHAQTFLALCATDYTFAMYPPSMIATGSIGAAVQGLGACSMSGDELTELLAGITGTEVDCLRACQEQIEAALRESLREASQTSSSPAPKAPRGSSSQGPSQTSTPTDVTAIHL

| IC50 (CDK4/cyclin D3) [nM] | IC50 (CDK2/cyclin A2) [nM] | SMILES |
| --- | --- | --- |
| < 10 | ≥ 100 | CC(C)Nc1nc(C2CCOC2)cc2cnc(Nc3ccc(CN4CCN(CCO)CC4)cn3)nc12 (centres unmarked) [Compound 1010] |
| < 10 | ≥ 100 | OCCN1CCN(Cc2ccc(Nc3ncc4cc(C5CCOC5)nc(N[C@H]5CCCOC5)c4n3)nc2)CC1 (some centres unmarked) [Compound 1011] |
| < 10 | ≥ 100 | CC(C)Nc1nc(C2CCOC2)cc2cnc(Nc3ccc(CN4CCN(CC#N)CC4)cn3)nc12 (centres unmarked) [Compound 1012] |
| < 10 | ≥ 100 | N#CCN1CCN(Cc2ccc(Nc3ncc4cc(C5CCOC5)nc(N[C@H]5CCCOC5)c4n3)nc2)CC1 (some centres unmarked) [Compound 1013] |
| < 10 | ≥ 100 | CC(C)Nc1nc(C2CCOC2)cc2cnc(Nc3ccc(CN4CCN(CC#N)CC4)cn3)nc12 (centres unmarked) [Compound 1014] |
| < 10 | ≥ 100 | CC(C)Nc1nc([C@@H](C)O)cc2cnc(Nc3ccc(CN4CCN(CC#N)CC4)cn3)nc12 [Compound 1015] |
| < 10 | ≥ 100 | CC(C)Nc1nc([C@@H](C)O)cc2cnc(Nc3ccc(CN4CCC(CO)CC4)cn3)nc12 [Compound 1016] |
| < 10 | ≥ 100 | CNC(=O)CN1CCN(Cc2ccc(Nc3ncc4cc([C@@H](C)O)nc(NC(C)C)c4n3)nc2)CC1 [Compound 1017] |
| < 10 | ≥ 100 | CC(C)Nc1nc([C@@H](C)O)cc2cnc(Nc3ccc(CN4CCN(CC(=O)N(C)C)CC4)cn3)nc12 [Compound 1018] |
| < 10 | ≥ 100 | CC(C)Nc1nc([C@@H](C)O)cc2cnc(Nc3ccc(CN4CCC(O)CC4)cn3)nc12 [Compound 1019] |
| < 10 | ≥ 100 | C[C@@H](O)c1cc2cnc(Nc3ccc(CN4CCC(O)CC4)cn3)nc2c(NC(C)(C)C)n1 [Compound 1020] |
| < 10 | ≥ 100 | C[C@@H](O)c1cc2cnc(Nc3ccc(CN4CCC(CO)CC4)cn3)nc2c(NC(C)(C)C)n1 [Compound 1021] |
| < 10 | ≥ 100 | CCCNc1nc([C@@H](C)O)cc2cnc(Nc3ccc(CN4CCC(O)CC4)cn3)nc12 [Compound 1022] |
| < 10 | ≥ 100 | CC(C)CNc1nc([C@@H](C)O)cc2cnc(Nc3ccc(CN4CCC(O)CC4)cn3)nc12 [Compound 1023] |
| < 10 | ≥ 100 | CC(C)CNc1nc([C@@H](C)O)cc2cnc(Nc3ccc(CN4CCC(CO)CC4)cn3)nc12 [Compound 1024] |
| < 10 | ≥ 100 | CC(=O)c1cc2cnc(Nc3ccc4c(n3)CCNC4)nc2c(NC(C)C)n1 [Compound 1027] |
| 10 to 100 | ≥ 100 | CCCNc1nc(C(C)=O)cc2cnc(Nc3ccc(N4CCNCC4)cn3)nc12 [Compound 1028] |
| < 10 | ≥ 100 | CC(=O)c1cc2cnc(Nc3ccc(N4CCNCCC4=O)cn3)nc2c(NC(C)C)n1 [Compound 1029] |
| 10 to 100 | ≥ 100 | CCC(=O)c1cc2cnc(Nc3ccc(N4CCNCC4=O)cn3)nc2c(NC(C)C)n1 [Compound 1030] |
| < 10 | ≥ 100 | CC(=O)c1nc(NC(C)C)c2nc(Nc3ccc(N4CCNCC4=O)cn3)ncc2c1Cl [Compound 1031] |
| < 10 | ≥ 100 | CC(C)Nc1nc([C@@H](C)O)cc2cnc(Nc3ccc(N4CC(C)NCC4=O)cn3)nc12 (some centres unmarked) [Compound 1032] |
| < 10 | ≥ 100 | CC(C)Nc1nc([C@@H](C)O)cc2cnc(Nc3ccc(N4C(=O)CNCC4C)cn3)nc12 (some centres unmarked) [Compound 1033] |
| < 10 | ≥ 100 | CCC(O)c1cc2cnc(Nc3ccc(N4CCNCC4)cn3)nc2c(NC(C)C)n1 (centres unmarked) [Compound 1034] |

| IC50 (CDK4/cyclin D3) [nM] | IC50 (CDK2/cyclin A2) [nM] | SMILES |
| --- | --- | --- |
| < 10 | ≥ 100 | CCC(O)c1cc2cnc(Nc3ccc(N4CCNCC4)cn3)nc2c(NC(C)C)n1 (centres unmarked) [Compound 1035] |
| 10 to 100 | ≥ 100 | CCC(O)c1cc2cnc(Nc3ccc(N4CCNCC4=O)cn3)nc2c(NC(C)C)n1 (centres unmarked) [Compound 1037] |
| < 10 | ≥ 100 | CC(C)Nc1nc([C@@H](C)O)cc2cnc(Nc3ccc(CN4CCCCC4)cn3)nc12 [Compound 1038] |
| < 10 | ≥ 100 | CCCNc1nc([C@@H](C)O)cc2cnc(Nc3ccc(CN4CCC(CO)CC4)cn3)nc12 [Compound 1040] |
| < 10 | ≥ 100 | CC(C)Nc1nc([C@@H](C)O)cc2cnc(Nc3ccc(CN4CCC(O)C4)cn3)nc12 (some centres unmarked) [Compound 1041] |
| 10 to 100 | ≥ 100 | CC(C)Nc1nc(C2CC(F)(F)C2)cc2cnc(Nc3ccc(N4CCNCC4=O)cn3)nc12 [Compound 1042] |
| < 10 | ≥ 100 | C[C@@H](O)c1cc2cnc(Nc3ccc(N4CCNCC4=O)cn3)nc2c(NCC2CC2)n1 [Compound 1043] |
| 10 to 100 | ≥ 100 | C[C@@H](O)c1cc2cnc(Nc3ccc(N4CCNCC4=O)cn3)nc2c(NC2CC2)n1 [Compound 1044] |
| < 10 | ≥ 100 | C[C@@H](O)c1cc2cnc(Nc3ccc(N4CCNCC4=O)cn3)nc2c(NC2CCC2)n1 [Compound 1045] |
| < 10 | ≥ 100 | CCNc1nc([C@@H](C)O)cc2cnc(Nc3ccc(CN4CCN(CCO)CC4)c(C)n3)nc12 [Compound 1046] |
| < 10 | ≥ 100 | CCCNc1nc([C@@H](C)O)cc2cnc(Nc3ccc(CN4CCN(CCO)CC4)c(C)n3)nc12 [Compound 1047] |
| < 10 | ≥ 100 | Cc1nc(Nc2ncc3cc([C@@H](C)O)nc(NC4CCC4)c3n2)ccc1N1CCNCC1=O [Compound 1048] |
| < 10 | ≥ 100 | CC(C)Nc1nc([C@@H](C)O)cc2cnc(Nc3cnc(CN4CCNCC4)cn3)nc12 [Compound 1049] |
| < 10 | ≥ 100 | CC(C)Nc1nc([C@@H](C)O)cc2cnc(Nc3cnc(CN4CCN(CCO)CC4)cn3)nc12 [Compound 1050] |
| < 10 | ≥ 100 | C[C@@H](O)c1cc2cnc(Nc3ccc(N4CCNCC4)cn3)nc2c(NCC2CC2)n1 [Compound 1051] |
| 10 to 100 | ≥ 100 | CC(=O)c1cc2cnc(Nc3ccc(N4CCNCC4)cn3)nc2c(NCC2CC2)n1 [Compound 1052] |
| 10 to 100 | ≥ 100 | CCNc1nc([C@@H](C)O)cc2cnc(Nc3cc(C)c(CN4CCN(CCO)CC4)cn3)nc12 [Compound 1053] |
| 10 to 100 | ≥ 100 | CCCNc1nc([C@@H](C)O)cc2cnc(Nc3cc(C)c(CN4CCN(CCO)CC4)cn3)nc12 [Compound 1054] |
| 10 to 100 | ≥ 100 | Cc1cc(Nc2ncc3cc([C@@H](C)O)nc(NC(C)C)c3n2)ncc1CN1CCN(CCO)CC1 [Compound 1055] |
| 10 to 100 | ≥ 100 | COC(=O)N1CCN(c2ccc(Nc3ncc4cc([C@@H](C)OC)nc(N[C@H]5CCCOC5)c4n3)nn2)CC1 [Compound 1056] |
| < 10 | ≥ 100 | CC(C)Nc1nc([C@@H](C)O)cc2cnc(Nc3ccc(CN4CCCC(O)C4)cn3)nc12 (some centres unmarked) [Compound 1057] |
| < 10 | ≥ 100 | CC(C)Nc1nc([C@@H](C)O)cc2cnc(Nc3ccc(O[C@@H]4CCN(CCO)C4)cn3)nc12 [Compound 1058] |
| < 10 | ≥ 100 | CCCNc1nc([C@@H](C)O)cc2cnc(Nc3ccc(O[C@@H]4CCN(CCO)C4)cn3)nc12 [Compound 1059] |
